Measured values published in patent US4232035A, “Carbamate pesticidal compounds compositions and methods of use” (priority 1975, dated 1980).

Legend:
[1] = tested on: bean aphid (Aphis fabae Scop.); assay: Bean Aphid Foliage Spray Test; assay type: in vivo; design: key: A: excellent control; B: partial control; C: no control; conditions: 500 parts per million foliage spray; 24 hour holding period
Protocol: (§1) Suspensions of the test compounds were prepared by dissolving one gram of compound in 50 milliliters of acetone in which had been dissolved 0.1 gram (10 percent of the weight of compound) of an alkylphenoxy polyethoxyethanol surfactant, as an emulsifying or dispersing agent. The resulting solution was mixed into 150 milliliters of water to give roughly 200 milliliters of a suspension containing the compound in finely divided form. The thus-prepared stock suspension contained 0.5 percent by weight of compound. The test concentrations in parts per million by weight employed in the tests described hereinbelow were obtained by appropriate dilutions of the stock suspension with water. The test procedures were as follows:
Adults and nymphal stages of the bean aphid (Aphis fabae Scop.) reared on potted dwarf nasturtium plants at 65°-70° F. and 50-70 percent relative humidity, constituted the test insects. For testing purposes, the number of aphids per pot was standardized to 100-150 by trimming plants containing excess aphids.
The test compounds were formulated by diluting the stock suspension with water to give a suspension containing 500 parts of test compound per million parts of final formulation.
The potted plants (one pot per compound tested) infested with 100-150 aphids, were placed on a revolving turntable and sprayed with 100-110 milliliters of test compound formulation by use of a DeVilbiss spray gun set at 40 psig. air pressure. This application, which lasted 25 seconds, was sufficient to wet the plants to run-off. As a control, 100-110 milliliters of a water-acetone-emulsifier solution containing no test compound were also sprayed on infested plants. After spraying, the pots were placed on their sides on a sheet of white standard mimeograph paper which had been previously ruled to facilitate counting. Temperature and humidity in the test room during the 24 hour holding period were 65°-70° F. and 50-70 percent, respectively. Aphids which fell onto the paper and were unable to remain standing after being uprighted were considered dead. Aphids remaining on the plants were observed closely for movement and those which were unable to move the length of the body upon stimulation by prodding were considered dead. Percent mortality was recorded for various concentration levels.

[2] = Peroral toxicity to mammals (rat); conditions: in vivo, po, mortality rate of 50 percent, read-out: A.O. Rat LD50
Protocol: Certain of these compositions were also evaluated to determine their peroral toxicity to mammals. The animal selected for this experiment was the rat. The test results obtained are expressed in terms of the number of milligrams of compositions per kilogram of weight of the animal required to achieve a mortality rate of 50 percent (LD50).

[3] = tested on: Mexican bean beetle (Epilachna varivestis, Muls.); assay: Mexican Bean Beetle Leaf Spray Test; assay type: in vivo; design: key: A: excellent control; B: partial control; C: no control; conditions: 500 parts per million leaf spray; fourth instar larvae; three days
Protocol: as §1
Fourth instar larvae of the Mexican bean beetle (Epilachna varivestis, Muls.), reared on Tendergreen bean plants at a temperature of 80°±5° F. and 50±5 percent relative humidity, were the test insects.
The test compounds were formulated by diluting the stock suspension with water to give a suspension containing 500 parts of test compound per million parts of final formulation. Potted Tendergreen bean plants of standard height and age were placed on a revolving turntable and sprayed with 100-110 milliliters of test compound formulation by use of a DeVilbiss spray gun set at 10 psig air pressure. This application, which lasted 25 seconds, was sufficient to wet plants to run-off. As a control, 100-110 milliliters of a water-acetone-emulsifier solution containing no test compound were also sprayed on infested plants. When dry, the paired leaves were separated and each was placed in a 9 centimeter Petri dish lined with moistened filter paper. Five randomly selected larvae were introduced into each dish, and the dishes were closed. The closed dishes were labeled and held at a temperature of 80°±5° F. for three days. Although the larvae could easily consume the leaf within 24 to 48 hours, no more food was added. Larvae which were unable to move the length of the body, even upon stimulation, were considered dead.

[4] = tested on: house flies (Musca domestica, L.); assay: Fly Bait Test; assay type: in vivo; design: key: A: excellent control; B: partial control; C: no control; conditions: 500 parts per million bait in sugar solution; twenty four hours
Protocol: as §1
Four to six day old adult house flies (Musca domestica, L.) reared according to the specifications of the Chemical Specialties Manufacturing Association (Blue Book, McNair-Dorland Co., N.Y. 1954; pages 243-244, 261) under controlled conditions of 80°±5° F. and 50±5 percent relative humidity, were the test insects. The flies were immobilized by anesthetizing with carbon dioxide and twenty five immobilized individuals, males and females, were transferred to a cage consisting of a standard food strainer about five inches in diameter which was inverted over a wrapping-paper-covered surface. The test compounds were formulated by diluting the stock suspension with a 10 percent (by weight) sugar solution to give a suspension containing 500 parts of test compound per million parts of final formulation, by weight. Ten milliliters of the test formulation were added to a souffle cup containing a one-inch square of an absorbent cotton pad. This bait cup was introduced and centered on the blotting paper under the food strainer prior to admitting the anesthetized flies. The caged flies were allowed to feed on the bait for twenty four hours, at a temperature of 80°±5° F. and the relative humidity of 50±5 percent.

[5] = tested on: root-knot nematode (Meloidogyne incognita var. acrita); assay: Nematode Test; assay type: in vivo; design: key: 1: severe galling; equal to untreated control; 2: moderate galling; 3: light galling; 4: very light galling; 5: no galling; conditions: 10 ml of 500 parts per million formulation per jar of soil; cucumber indicator crop, approximately three weeks
Protocol: as §1
Infective migratory larvae of the root-knot nematode, (Meloidogyne incognita var. acrita) were reared in the greenhouse on roots of Rutgers variety tomato plant. Infected tomato plants were removed from the culture and the roots were chopped very finely. A small amount of inoculum from the roots was added to pint Mason jars containing approximately 180 cc of soil. The jars containing the inoculum and soil were capped and incubated for one week at room temperature. During this period eggs of the nematode hatched and the larvae forms migrated into the soil.
The test compounds were formulated by diluting the stock suspension with water to give a suspension containing 500 parts of test compound per million parts of final formulation. 10 milliliters of the test formulation was added to each of two jars for each dosage treated. As a control 10 milliliters of a water-acetone-emulsifier solution containing no test compound was also added to jars containing nematode larvae. The jars were capped and the contents thoroughly mixed on a kale mill for five minutes. The jars remained capped at room temperature for a period of 48 hours and the contents were then transferred to 3 inch pots. Subsequently, the pots were seeded to cucumber as an indicator crop and placed in the green house where they were cared for in the normal fashion for growing potted cucumber for approximately three weeks. These cucumber plants were then removed from the pots, the soil washed from the roots and the amount of galling visually rated.

CN(SSC(C)(C)C)C(=O)ON=C1SCCS1
Aphid, pesticidal activity rating [1]: A | LD50 [2]: 5.6 mg/kg | M. Bean Beetle, pesticidal activity rating [3]: A | H. Fly, pesticidal activity rating [4]: A | Nematodes, nematocidal toxicity rating (galling) [5]: 5

CN(SSC(C)(C)C)C(=O)ON=C1SC(C)(C)C(=O)N1C
Aphid, pesticidal activity rating [1]: A | LD50 [2]: 299 mg/kg | M. Bean Beetle, pesticidal activity rating [3]: A | H. Fly, pesticidal activity rating [4]: A | Nematodes, nematocidal toxicity rating (galling) [5]: 1
